# Read-outs that look alike come from different tables or passages of the source.
# Conditions: human, in vivo
# Experimental: The patient collected an approximately 500 μL blood sample from a fingerstick. The small volume blood sample was collected as described above, using a K2-EDTA collection tube, and timely transported to the testing facility. At the testing facility, the whole blood sample in K2-EDTA was split into 3 fractions: (1) 50 μL for immunosuppressant drug monitoring using tandem mass spectrometry, (2) 50 μL for complete blood count by flow cytometry, and (3) the remainder for various other tests.
# The first fraction was prepared by adding 200 μL of ZnSO4 (zinc sulfate) to the fraction, and the cells were lysed by vortexing for 10 seconds. Then 500 μL of a solution containing acetonitrile and internal reference standards (ascomycin: 2 nanograms (ng)/ml, along with cyclosporin D 25 ng/ml) was added, and the sample was mixed by vortexing for 20 seconds. The tubes were then spun down for 4 minutes at 14,000×g (14,000 times gravity). The supernatant was decanted into vials for assay by mass spectrometry.
# The patient collected an approximately 500 μL blood sample from a fingerstick. The small volume blood sample was collected using a K2-EDTA collection tube, transported to the testing facility, and divided into three fractions as described above. Each fraction was prepared as described above for the adult patient, and the same immunosuppressant drug monitoring of immunosuppressants, complete blood count, assays for renal function, and assays for hepatic function were performed.
Result (blood level) (female) [µg/L],Result (blood level) (male) [µg/L],SMILES
3.10,5.10,CO[C@H]1C[C@@H]2CC[C@@H](C)[C@@](O)(O2)C(=O)C(=O)N2CCCC[C@H]2C(=O)O[C@H]([C@H](C)C[C@@H]2CC[C@@H](O)[C@H](OC)C2)CC(=O)[C@H](C)/C=C(\C)[C@@H](O)[C@@H](OC)C(=O)[C@H](C)C[C@H](C)/C=C/C=C/C=C/1C [Rapamycin]
10.80,6.80,C=CC[C@@H]1/C=C(\C)C[C@H](C)C[C@H](OC)[C@H]2O[C@@](O)(C(=O)C(=O)N3CCCC[C@H]3C(=O)O[C@H](/C(C)=C/[C@@H]3CC[C@@H](O)[C@H](OC)C3)[C@H](C)[C@@H](O)CC1=O)[C@H](C)C[C@@H]2OC [Tacrolimus]

# — patent US20120164671A1, “METHODS FOR MONITORING IMMUNOSUPPRESSANT DRUG LEVELS, RENAL FUNCTION, AND HEPATIC FUNCTION USING SMALL VOLUME SAMPLES” (priority 2008, published 2012)
